The target of this test is wild-type human cardiac sodium channel, hNav1.5 (Homo sapiens, UniProt Q14524). Briefly: Late INa screening assay (late sodium current, PatchXpress whole cell patch clamp). Format: cell-based. To be noted: compound at 10 μM; read-out: Late INa % blk.
Chain of wild-type human cardiac sodium channel, hNav1.5 (Q14524 whole entry): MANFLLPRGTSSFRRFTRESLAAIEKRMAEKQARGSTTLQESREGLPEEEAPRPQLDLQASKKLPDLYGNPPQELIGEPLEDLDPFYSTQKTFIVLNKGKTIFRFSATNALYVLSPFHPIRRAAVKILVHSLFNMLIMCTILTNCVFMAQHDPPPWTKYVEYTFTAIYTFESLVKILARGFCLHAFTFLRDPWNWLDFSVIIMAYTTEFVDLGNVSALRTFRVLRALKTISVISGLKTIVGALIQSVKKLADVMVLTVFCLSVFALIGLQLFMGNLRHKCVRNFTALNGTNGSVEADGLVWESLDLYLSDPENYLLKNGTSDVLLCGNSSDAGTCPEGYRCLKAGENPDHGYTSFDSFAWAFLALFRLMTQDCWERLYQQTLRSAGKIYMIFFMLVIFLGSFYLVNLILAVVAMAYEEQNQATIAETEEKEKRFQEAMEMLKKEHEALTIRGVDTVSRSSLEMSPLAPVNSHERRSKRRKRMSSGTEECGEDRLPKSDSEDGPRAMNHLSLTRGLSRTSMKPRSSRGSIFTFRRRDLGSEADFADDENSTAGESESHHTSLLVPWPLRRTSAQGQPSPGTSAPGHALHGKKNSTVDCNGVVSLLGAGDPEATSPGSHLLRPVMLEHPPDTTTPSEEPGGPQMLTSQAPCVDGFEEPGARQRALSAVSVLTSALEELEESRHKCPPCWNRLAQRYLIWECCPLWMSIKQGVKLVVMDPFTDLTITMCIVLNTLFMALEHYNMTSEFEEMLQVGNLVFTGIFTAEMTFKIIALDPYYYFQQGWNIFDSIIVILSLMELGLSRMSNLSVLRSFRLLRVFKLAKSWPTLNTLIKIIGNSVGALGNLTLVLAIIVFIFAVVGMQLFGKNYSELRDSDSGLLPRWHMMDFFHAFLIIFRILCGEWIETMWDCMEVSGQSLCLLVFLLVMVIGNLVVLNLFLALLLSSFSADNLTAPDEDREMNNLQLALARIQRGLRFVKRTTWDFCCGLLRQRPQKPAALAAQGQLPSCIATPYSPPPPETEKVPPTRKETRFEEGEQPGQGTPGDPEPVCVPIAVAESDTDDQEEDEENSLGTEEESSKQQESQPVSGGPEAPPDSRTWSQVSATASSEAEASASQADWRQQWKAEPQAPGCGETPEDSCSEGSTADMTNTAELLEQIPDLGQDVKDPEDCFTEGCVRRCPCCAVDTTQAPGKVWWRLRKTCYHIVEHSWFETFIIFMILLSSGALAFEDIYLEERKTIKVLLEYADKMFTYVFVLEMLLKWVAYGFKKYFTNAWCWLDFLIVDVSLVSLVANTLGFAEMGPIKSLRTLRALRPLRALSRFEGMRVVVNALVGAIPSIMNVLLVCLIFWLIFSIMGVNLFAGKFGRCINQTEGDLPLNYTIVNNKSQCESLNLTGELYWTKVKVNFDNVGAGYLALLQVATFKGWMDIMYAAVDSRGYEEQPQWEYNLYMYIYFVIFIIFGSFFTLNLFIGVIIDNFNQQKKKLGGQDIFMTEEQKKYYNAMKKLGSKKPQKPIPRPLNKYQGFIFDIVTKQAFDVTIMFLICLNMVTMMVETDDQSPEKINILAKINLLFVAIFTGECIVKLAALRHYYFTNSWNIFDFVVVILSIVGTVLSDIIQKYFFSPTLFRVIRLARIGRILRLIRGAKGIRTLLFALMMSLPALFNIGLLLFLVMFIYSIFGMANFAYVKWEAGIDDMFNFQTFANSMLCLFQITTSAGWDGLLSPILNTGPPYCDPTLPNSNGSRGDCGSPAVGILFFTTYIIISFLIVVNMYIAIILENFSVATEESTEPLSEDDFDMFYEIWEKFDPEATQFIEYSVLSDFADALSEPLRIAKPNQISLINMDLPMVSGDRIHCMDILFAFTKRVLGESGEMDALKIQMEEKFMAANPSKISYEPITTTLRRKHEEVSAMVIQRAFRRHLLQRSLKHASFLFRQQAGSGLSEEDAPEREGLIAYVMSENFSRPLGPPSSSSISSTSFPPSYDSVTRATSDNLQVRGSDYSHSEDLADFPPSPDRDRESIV

With `CC1=C(C(=O)OCc2ccccc2)C(c2cnc(N3CCN(C)CC3)s2)n2nnnc2N1` (stereo not shown) [PT-341, benzyl 5-methyl-7-(2-(4-methylpiperazin-1-yl)thiazol-5-yl)-4,7-dihydrotetrazolo[1,5-a]pyrimidine-6-carboxylate], the inhibition at 10 µM is 23.3%.
Then `COc1cc(OC)c(C2C(C(=O)OCc3ccccc3)=C(C)Nc3nnnn32)c(OC)c1` (stereo not shown) [PT-343, benzyl 5-methyl-7-(2,4,6-trimethoxyphenyl)-4,7-dihydrotetrazolo[1,5-a]pyrimidine-6-carboxylate], with 34.4%; and `CC1=C(C(=O)OCc2ccccc2)C(c2ccccc2-c2ccccc2C)n2nnnc2N1` (stereo not shown) [PT-344, benzyl 5-methyl-7-(2′-methylbiphenyl-2-yl)-4,7-dihydrotetrazolo[1,5-a]pyrimidine-6-carboxylate], with 44.6%; and `CC1=C(C(=O)OCc2ccccc2)C(c2ccccc2N2CCOCC2)n2nnnc2N1` (stereo not shown) [PT-345, benzyl 5-methyl-7-(2-morpholinophenyl)-4,7-dihydrotetrazolo[1,5-a]pyrimidine-6-carboxylate], with 36.7%.
Then `CC1=C(C(=O)OCc2ccccc2)C(c2cnc(N3CCOCC3)s2)n2nnnc2N1` (stereo not shown) [PT-346, benzyl 5-methyl-7-(2-morpholinothiazol-5-yl)-4,7-dihydrotetrazolo[1,5-a]pyrimidine-6-carboxylate], with 23%; and `CC1=C(C(=O)OCc2ccccc2)C(c2ccc(C(F)(F)F)cc2[N+](=O)[O-])n2nnnc2N1` (stereo not shown) [PT-347, benzyl 5-methyl-7-(2-nitro-4-(trifluoromethyl)phenyl)-4,7-dihydrotetrazolo[1,5-a]pyrimidine-6-carboxylate], with 5.1%.
Under `CC1=C(C(=O)OCc2ccccc2)C(c2ccccc2-c2cccc(C(F)(F)F)c2)n2nnnc2N1` (stereo not shown) [PT-349, benzyl 5-methyl-7-(3′-(trifluoromethyl)biphenyl-2-yl)-4,7-dihydrotetrazolo[1,5-a]pyrimidine-6-carboxylate] stands 77.3%; under `CC1=C(C(=O)OCc2ccccc2)C(c2ccccc2-c2cccc(C)c2)n2nnnc2N1` (stereo not shown) [PT-350, benzyl 5-methyl-7-(3′-methylbiphenyl-2-yl)-4,7-dihydrotetrazolo[1,5-a]pyrimidine-6-carboxylate], 63.2%; under `CC1=C(C(=O)OCc2ccccc2)C(c2ccc(S(C)(=O)=O)cc2[N+](=O)[O-])n2nnnc2N1` (stereo not shown) [PT-353, benzyl 5-methyl-7-(4-(methylsulfonyl)-2-nitrophenyl)-4,7-dihydrotetrazolo[1,5-a]pyrimidine-6-carboxylate], 5.8%.
In the case of `CC1=C(C(=O)OCc2ccccc2)C(c2ccccc2-c2ccc(S(C)(=O)=O)cc2)n2nnnc2N1` (stereo not shown) [PT-354, benzyl 5-methyl-7-(4′-(methylsulfonyl)biphenyl-2-yl)-4,7-dihydrotetrazolo[1,5-a]pyrimidine-6-carboxylate], the inhibition at 10 µM was determined as 64.7%.
Under `CC1=C(C(=O)OCc2ccccc2)C(c2ccc(S(C)(=O)=O)cc2)n2nnnc2N1` (stereo not shown) [PT-355, benzyl 5-methyl-7-(4-(methylsulfonyl)phenyl)-4,7-dihydrotetrazolo[1,5-a]pyrimidine-6-carboxylate] stands 14.8%; under `CSc1ccc(C2C(C(=O)OCc3ccccc3)=C(C)Nc3nnnn32)cc1` (stereo not shown) [PT-356, benzyl 5-methyl-7-(4-(methylthio)phenyl)-4,7-dihydrotetrazolo[1,5-a]pyrimidine-6-carboxylate], 16.4%.
Under `CC1=C(C(=O)OCc2ccccc2)C(c2ccc(OC(F)(F)F)cc2)n2nnnc2N1` (stereo not shown) [PT-357, benzyl 5-methyl-7-(4-(trifluoromethoxy)phenyl)-4,7-dihydrotetrazolo[1,5-a]pyrimidine-6-carboxylate] stands 19.6%; under `CC1=C(C(=O)OCc2ccccc2)C(c2ccc(C(F)(F)F)cc2)n2nnnc2N1` (stereo not shown) [PT-358, benzyl 5-methyl-7-(4-(trifluoromethyl)phenyl)-4,7-dihydrotetrazolo[1,5-a]pyrimidine-6-carboxylate], 7.4%; under `CC1=C(C(=O)OCc2ccccc2)C(c2ccc(SC(F)(F)F)cc2)n2nnnc2N1` (stereo not shown) [PT-359, benzyl 5-methyl-7-(4-(trifluoromethylthio)phenyl)-4,7-dihydrotetrazolo[1,5-a]pyrimidine-6-carboxylate], 21.3%.
Then `CC1=C(C(=O)OCc2ccccc2)C(c2ccccc2-c2ccc(N3CCOCC3)cc2)n2nnnc2N1` (stereo not shown) [PT-360, benzyl 5-methyl-7-(4′-morpholinobiphenyl-2-yl)-4,7-dihydrotetrazolo[1,5-a]pyrimidine-6-carboxylate], with 7.2%.
Consider `CC1=C(C(=O)OCc2ccccc2)C(c2ccccc2-c2ccc([N+](=O)[O-])cc2)n2nnnc2N1` (stereo not shown) [PT-361, benzyl 5-methyl-7-(4′-nitrobiphenyl-2-yl)-4,7-dihydrotetrazolo[1,5-a]pyrimidine-6-carboxylate], for which the inhibition at 10 µM is 41%.
Under `CC1=C(C(=O)OCc2ccccc2)C(c2cccc3ccccc23)n2ncc(-c3ccccc3)c2N1` (stereo not shown) [PT-362, benzyl 5-methyl-7-(naphthalen-1-yl)-3-phenyl-4,7-dihydropyrazolo[1,5-a]pyrimidine-6-carboxylate] stands 14.4%.
Turning to `CC1=C(C(=O)OCc2ccccc2)C(c2cncs2)n2nnnc2N1` (stereo not shown) [PT-365, benzyl 5-methyl-7-(thiazol-5-yl)-4,7-dihydrotetrazolo[1,5-a]pyrimidine-6-carboxylate], the inhibition at 10 µM is 26.9%.
Then `CC1=C(C(=O)OCc2ccccc2)C(c2cccc3ccccc23)c2cn[nH]c2N1` (stereo not shown) [PT-367, benzyl 6-methyl-4-(naphthalen-1-yl)-4,7-dihydro-1H-pyrazolo[3,4-b]pyridine-5-carboxylate], with 16.1%; and `CC1=C(C(=O)OCc2ccccc2)C(c2ccc3ccccc3c2)c2cn[nH]c2N1` (stereo not shown) [PT-368, benzyl 6-methyl-4-(naphthalen-2-yl)-4,7-dihydro-1H-pyrazolo[3,4-b]pyridine-5-carboxylate], with -4.2%; and `CC1=C(C(=O)OCc2ccccc2)C(c2cccs2)c2cn[nH]c2N1` (stereo not shown) [PT-370, benzyl 6-methyl-4-(thiophen-2-yl)-4,7-dihydro-1H-pyrazolo[3,4-b]pyridine-5-carboxylate], with 24.7%.
Under `CC1=C(C(=O)OCc2ccccc2)C(c2ccccc2)c2cn[nH]c2N1` (stereo not shown) [PT-372, benzyl 6-methyl-4-phenyl-4,7-dihydro-1H-pyrazolo[3,4-b]pyridine-5-carboxylate] stands 20.8%.
Under `CC1=C(C(=O)OCc2ccccc2)C(c2ccccc2-c2cnc(N)nc2)n2nnnc2N1` (stereo not shown) [PT-375, benzyl 7-(2-(2-aminopyrimidin-5-yl)phenyl)-5-methyl-4,7-dihydrotetrazolo[1,5-a]pyrimidine-6-carboxylate] stands 50.7%; under `CC1=C(C(=O)OCc2ccccc2)C(c2ccccc2-c2c(C)noc2C)n2nnnc2N1` (stereo not shown) [PT-376, benzyl 7-(2-(3,5-dimethylisoxazol-4-yl)phenyl)-5-methyl-4,7-dihydrotetrazolo[1,5-a]pyrimidine-6-carboxylate], 61%.

For the origin of these results see patent publication US20090012103A1, “SUBSTITUTED HETEROCYCLIC COMPOUNDS” (priority 2007, published 2009).
